Several values for one entry are separate records, joined by “and”; a condition that tells them apart may be missing. Equal entries are not always repeated. Where two headings read alike, the source gives them in different places.
Tests used:
[1] = target: Ustilago maydis acetyl CoA carboxylase (ACCase) (Mycosarcoma maydis (Ustilago maydis), UniProt A0A0D1DYD5); assay: ACCase enzymatic assay (coupled PK/LDH, NADH OD340); assay type: biochemical
Experimental: Ustilago maydis acetyl CoA carboxylase (ACCase) was cloned, expressed, and purified as described (Weatherly et al, Biochem. J., 2004) and the test compounds were tested in a 96-well plate format. Primary in vitro screening consisted of obtaining dose response data at 100, 33, 10, and 1 μM inhibitor. Actives in the primary screen were re-tested to establish IC50 values.
Direct detection of the conversion of acetyl CoA to malonyl CoA by ACCase was not feasible, but during this process ATP is converted to ADP which allowed for detection through a standard reaction coupling with ADP recycling to the oxidation of NADH. Thus, ACCase activity was measured via kinetic OD340 measurements of the conversion of NADH to NAD in a coupled reaction involving the conversion of phosphoenolpyruvate (PEP) to lactate.
The complete 200 ul reaction mixture contained 52.5 mM HEPES (pH8), 2.625 mM MgCl2, 1 mM ATP, 0.525 mM DTT, 11 mM NaHCO3, 1% DMSO with or without inhibitor, 1× pyruvate kinase/lactate dehydrogenase (PK/LDH), 0.3 mM NADH, 0.5 mM PEP, and 5 μg ACCase. The reactions were incubated at 30° C. for 10 minutes and then initiated by the addition of 0.33 mM acetyl CoA. The initiated reactions were read immediately via plate reader at OD340 and kinetic readings were acquired every 20 s for 15 minutes while keeping the temperature at 30° C.
A slope of the kinetic curve was determined by using the 2 to 7 minute data which was then calculated as percent inhibition relative to the no inhibitor control.
The primary screens were conducted in duplicate and the IC50's conducted in triplicate. Averages were reported along with standard deviation calculation to generate error bars.
Each plate contained its own controls and consisted of a DMSO only control, 5-fold titration series of soraphen from 2 μM to 3.2 nM, and an ADP coupled reaction control.

Diplodia maydis = assay: Fungal growth inhibition assay, Diplodia maydis; assay type: cell-based; conditions: 48 hours, read-out: D. maydis % growth inhibition at 48 hours
Experimental: Spores were isolated from previously sub-cultured plates of Botrytis cinerea, Phytophthora capsici, Fusarium moniliforme, Fusarium viguliforme, Collectotrichum graminicola, and Diplodia maydis. All spores were filtered and collected in a sterile glass bowl to isolate the spores from the mycelia. The isolation and sub-culture plate condition for each pathogen is described below.
Spore isolation for D. maydis: A 3-4 week old PDA (pre-mix) plate was removed from 26° C. incubator with a light/dark 12 hour cycle and the mycelia were treated with 6-7 ml of sterile distilled water, scraped into a sterile petri dish, and smashed to open the pycnidia. The spores were then collected in a sterile filter bowl containing a fluted piece of filter paper and poured into a conical tube.
After spore isolation, pathogen spores were counted on a hemocytometer to calculate the spores/ml. In 17% V8 liquid media containing 3 g/L CaCO3, isolated spores were diluted to individual concentrations based on the growth curves at 48 hours of each pathogen. The spore concentrations for each pathogen were as follows: B. cinerea—10,000 sp/ml; P. capsici—300 sp/ml; F. monliforme—500 sp/ml; F. virguliforme—500 sp/ml; C. graminicola—3,000 sp/ml; and D. maydis—3,000 sp/ml.
Chemistry stocks were dissolved in DMSO at 2.5 mg/ml. Chemistry was diluted in a 96-well stock plate in five-fold dilutions to obtain a final concentration of 50, 10, and 2 ppm in vitro. The final concentration of the positive control after the five-fold dilutions was as follows: soraphen—0.5, 0.1, and 0.02 ppm. Negative controls on each plate included 2% DMSO, water containing spores and media, and a blank for background subtraction.
In a 96-well plate the spore solution, chemistries, and controls were combined to make the final solution concentrations mentioned above. Upon addition of the chemistry, an OD600 reading was done to assess chemical precipitation. The 96-well plates were incubated in plastic tubs containing wet paper towels under the following conditions, 25° C. in the dark for P. capsici and B. cinerea or 26° C. with light/dark cycle for C. graminicola, D. maydis, F. virguliforme, F. monliforme. Plate readings were repeated at 24 and 48 hrs. Visual ratings were performed at 24 and 48 hrs to check for precipitation and confirm efficacy. Visual and OD600 ratings of the chemistry at 48 hours were compared to the 2% DMSO control to determine the percent of pathogen growth inhibition.

[2] = Table 1A, values marked a are a result of two or more experiments, read-out: ACCase Inhibitory Activity IC50
[3] = Table 1B, racemate vs single enantiomers, read-out: ACCase Inhibitory Activity of Racemic Mixtures and Single Enantiomers IC50

Sequence of Ustilago maydis acetyl CoA carboxylase (ACCase) (A0A0D1DYD5 1-2185): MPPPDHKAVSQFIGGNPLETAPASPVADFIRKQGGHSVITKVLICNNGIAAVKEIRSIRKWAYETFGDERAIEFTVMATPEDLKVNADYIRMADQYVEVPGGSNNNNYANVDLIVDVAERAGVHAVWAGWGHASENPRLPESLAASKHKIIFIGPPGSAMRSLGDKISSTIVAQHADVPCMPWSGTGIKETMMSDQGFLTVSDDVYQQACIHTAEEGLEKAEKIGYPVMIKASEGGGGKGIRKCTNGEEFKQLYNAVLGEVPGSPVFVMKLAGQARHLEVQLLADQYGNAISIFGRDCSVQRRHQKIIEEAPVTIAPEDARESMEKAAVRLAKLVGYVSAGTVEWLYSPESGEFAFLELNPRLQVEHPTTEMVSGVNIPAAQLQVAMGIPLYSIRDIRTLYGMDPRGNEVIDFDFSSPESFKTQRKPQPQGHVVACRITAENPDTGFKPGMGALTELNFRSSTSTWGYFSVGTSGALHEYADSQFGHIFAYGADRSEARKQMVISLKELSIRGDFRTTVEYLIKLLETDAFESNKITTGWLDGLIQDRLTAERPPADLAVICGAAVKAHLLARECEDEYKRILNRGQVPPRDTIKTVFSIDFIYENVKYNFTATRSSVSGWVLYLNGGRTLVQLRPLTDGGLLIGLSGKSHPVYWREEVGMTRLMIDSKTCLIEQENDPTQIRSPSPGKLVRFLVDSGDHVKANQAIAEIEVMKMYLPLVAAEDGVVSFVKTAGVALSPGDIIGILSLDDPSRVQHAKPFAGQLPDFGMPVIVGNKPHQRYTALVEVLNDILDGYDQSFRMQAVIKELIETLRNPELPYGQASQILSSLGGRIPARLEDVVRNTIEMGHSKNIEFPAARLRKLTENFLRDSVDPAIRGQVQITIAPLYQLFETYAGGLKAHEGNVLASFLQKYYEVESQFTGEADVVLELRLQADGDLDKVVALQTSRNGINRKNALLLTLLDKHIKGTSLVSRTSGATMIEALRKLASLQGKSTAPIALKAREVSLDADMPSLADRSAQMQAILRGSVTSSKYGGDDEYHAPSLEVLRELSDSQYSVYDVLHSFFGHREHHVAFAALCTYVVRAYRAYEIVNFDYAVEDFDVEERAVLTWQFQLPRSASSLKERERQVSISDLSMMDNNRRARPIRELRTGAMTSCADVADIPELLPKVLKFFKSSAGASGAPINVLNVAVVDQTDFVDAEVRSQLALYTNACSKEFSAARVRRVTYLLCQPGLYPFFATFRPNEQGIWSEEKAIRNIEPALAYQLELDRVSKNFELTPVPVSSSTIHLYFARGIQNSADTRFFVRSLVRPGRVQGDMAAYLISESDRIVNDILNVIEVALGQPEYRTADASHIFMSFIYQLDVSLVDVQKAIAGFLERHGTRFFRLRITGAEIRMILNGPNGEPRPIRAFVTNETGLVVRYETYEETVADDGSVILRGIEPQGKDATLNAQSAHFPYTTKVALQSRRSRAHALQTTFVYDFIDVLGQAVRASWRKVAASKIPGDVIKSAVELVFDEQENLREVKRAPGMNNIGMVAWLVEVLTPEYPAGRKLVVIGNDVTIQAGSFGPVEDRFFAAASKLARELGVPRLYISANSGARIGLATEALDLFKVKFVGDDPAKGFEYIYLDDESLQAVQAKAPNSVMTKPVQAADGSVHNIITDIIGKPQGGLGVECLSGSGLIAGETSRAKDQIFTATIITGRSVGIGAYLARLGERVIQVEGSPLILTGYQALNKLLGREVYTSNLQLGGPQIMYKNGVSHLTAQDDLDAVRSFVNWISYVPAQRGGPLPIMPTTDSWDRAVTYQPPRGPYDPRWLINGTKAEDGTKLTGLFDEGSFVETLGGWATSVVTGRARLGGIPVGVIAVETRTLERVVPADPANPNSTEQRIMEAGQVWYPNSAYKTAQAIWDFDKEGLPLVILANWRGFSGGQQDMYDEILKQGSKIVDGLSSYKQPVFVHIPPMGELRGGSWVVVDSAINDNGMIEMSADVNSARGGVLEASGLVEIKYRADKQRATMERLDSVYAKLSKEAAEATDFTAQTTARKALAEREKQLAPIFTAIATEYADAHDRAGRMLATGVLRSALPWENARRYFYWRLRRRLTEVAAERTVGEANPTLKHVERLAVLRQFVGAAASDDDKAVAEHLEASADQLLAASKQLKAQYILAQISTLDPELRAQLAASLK

Row | Compound | IC50 [1, 2] [nM] | also measured
1 | 2-((3-cyano-4-(thiophen-2-yl)-5,6,7,8-tetrahydroquinolin-2-yl)oxy)-2-phenylacetic acid [Formula Ia-xxvii] | 249 | 
2 | N#Cc1c(C(F)(F)F)cc(-c2cccs2)nc1SC(C(=O)O)c1ccccc1 (single isomer, unassigned) [Formula Ia-ii-e1, 2-((3-cyano-6-(thiophen-2-yl)-4-(trifluoromethyl)-pyridin-2-yl)thio)-2-phenylacetic acid] |  | IC50 [1, 3]: 12900 nM
3 | N#Cc1c(-c2cccs2)cc(-c2cccs2)nc1SC(C(=O)O)c1ccccc1 (single isomer, unassigned) [Formula Ia-iii-e1, 2-((3-cyano-4,6-di(thiophen-2-yl)pyridin-2-yl)thio)-2-phenylacetic acid] |  | IC50 [1, 3]: 547 nM
4 | N#Cc1c(-c2cccs2)cc(-c2cccs2)nc1SC(C(=O)O)c1ccccc1 (single isomer, unassigned) [Formula Ia-iii-e2, 2-((3-cyano-4,6-di(thiophen-2-yl)pyridin-2-yl)thio)-2-phenylacetic acid] |  | IC50 [1, 3]: 2390 nM
5 | COc1ccc(-c2cc(-c3cccs3)nc(SC(C(=O)O)c3ccccc3)c2C#N)cc1 (single isomer, unassigned) [Formula Ia-xiv-e1, 2-((3-cyano-4-(4-methoxyphenyl)-6-(thiophen-2-yl)pyridin-2-yl)thio)-2-phenylacetic acid] |  | IC50 [1, 3]: 115 nM and 129 nM
6 | COc1ccc(-c2cc(-c3cccs3)nc(SC(C(=O)O)c3ccccc3)c2C#N)cc1 (single isomer, unassigned) [Formula Ia-xiv-e2, 2-((3-cyano-4-(4-methoxyphenyl)-6-(thiophen-2-yl)pyridin-2-yl)thio)-2-phenylacetic acid] |  | IC50 [1, 3]: 440 nM and 523 nM
7 | COc1ccc(-c2cc(-c3cccs3)nc(SC(CO)c3ccccc3)c2C#N)cc1 (centres unmarked) [Formula IIb-i, 2-((2-hydroxy-1-phenylethyl)thio)-4-(4-methoxyphenyl)-6-(thiophen-2-yl)nicotinonitrile] | 625 | 
8 | N#Cc1c(SC(CO)c2ccccc2)nc2c(c1-c1cccs1)CCCC2 (centres unmarked) [Formula IIb-ii, 2-((2-hydroxy-1-phenylethyl)thio)-4-(thiophen-2-yl)-5,6,7,8-tetrahydroquinoline-3-carbonitrile] | 4090 | 
9 | N#Cc1c(-c2ccco2)cc(-c2cccs2)nc1SC(CO)c1ccccc1 (centres unmarked) [Formula IIb-iv, 4-(furan-2-yl)-2-((2-hydroxy-1-phenylethyl)thio)-6-(thiophen-2-yl)nicotinonitrile] | 2180 | 
10 | CN1CCCc2c1nc(SC(C(=O)O)c1ccccc1)c(C#N)c2-c1cccs1 (centres unmarked) [Formula Ia-vi, 2-((3-cyano-8-methyl-4-(thiophen-2-yl)-5,6,7,8-tetrahydro-1,8-naphthyridin-2-yl)thio)-2-phenylacetic acid] | 3550 | 
11 | N#Cc1c(C(F)(F)F)cc(-c2ccco2)nc1SC(C(=O)O)c1ccccc1 (centres unmarked) [Formula Ia-xi, 2-((3-cyano-6-(furan-2-yl)-4-(trifluoromethyl)pyridin-2-yl)thio)-2-phenylacetic acid] | 5430 | inhibition at 2 ppm (Diplodia maydis; 2 ppm): 38%; inhibition at 10 ppm (Diplodia maydis; 10 ppm): 54%; inhibition at 50 ppm (Diplodia maydis; 50 ppm): 82%
12 | COc1ccc(-c2cc(SC(C(=O)O)c3ccccc3)nc(-c3cccs3)c2)cc1 (centres unmarked) [Formula Ia-xix, 2-((4-(4-methoxyphenyl)-6-(thiophen-2-yl)pyridin-2-yl)thio)-2-phenylacetic acid] | 9060 | 
13 | Cc1cc(C(F)(F)F)c(C#N)c(SC(C(=O)O)c2ccccc2)n1 (centres unmarked) [Formula Ia-xvi, 2-((3-cyano-6-methyl-4-(trifluoromethyl)pyridin-2-yl)thio)-2-phenylacetic acid] | 7730 | 
14 | N#Cc1c(SC(C(=O)O)c2ccccc2)nc2c(c1-c1ccccc1)CCCC2 (centres unmarked) [Formula Ia-xvii, 2-((3-cyano-4-phenyl-5,6,7,8-tetrahydroquinolin-2-yl)thio)-2-phenylacetic acid] | 906 | 
15 | COc1ccc(-c2cc(-c3ccco3)nc(SC(C(=O)O)c3ccccc3)c2C#N)cc1 (centres unmarked) [Formula Ia-xx, 2-((3-cyano-6-(furan-2-yl)-4-(4-methoxyphenyl)pyridin-2-yl)thio)-2-phenylacetic acid] | 345 | 
16 | Cc1ccc(-c2cc(-c3cccs3)nc(SC(C(=O)O)c3ccccc3)c2C#N)cc1 (centres unmarked) [Formula Ia-xxi, 2-((3-cyano-6-(thiophen-2-yl)-4-(p-tolyl)pyridin-2-yl)thio)-2-phenylacetic acid] | 353 | 
17 | N#Cc1c(-c2ccc(F)cc2)cc(-c2cccs2)nc1SC(C(=O)O)c1ccccc1 (centres unmarked) [Formula Ia-xxii, 2-((3-cyano-4-(4-fluorophenyl)-6-(thiophen-2-yl)pyridin-2-yl)thio)-2-phenylacetic acid] | 563 | 
18 | N#Cc1c(-c2ccc(Br)cc2)cc(-c2cccs2)nc1SC(C(=O)O)c1ccccc1 (centres unmarked) [Formula Ia-xxiii, 2-((4-(4-bromophenyl)-3-cyano-6-(thiophen-2-yl)pyridin-2-yl)thio)-2-phenylacetic acid] | 212 | 
19 | N#Cc1c(-c2cccs2)cc(-c2ccco2)nc1SC(C(=O)O)c1ccccc1 (centres unmarked) [Formula Ia-xxiv, 2-((3-cyano-6-(furan-2-yl)-4-(thiophen-2-yl)pyridin-2-yl)thio)-2-phenylacetic acid] | 958 | 
20 | CCC(Sc1nc(-c2cccs2)cc(-c2ccc(OC)cc2)c1C#N)C(=O)O (centres unmarked) [Formula Ia-xxix, 2-((3-cyano-4-(4-methoxyphenyl)-6-(thiophen-2-yl)pyridin-2-yl)thio)butanoic acid] | 113 | 
21 | N#Cc1c(-c2ccco2)cc(-c2ccco2)nc1SC(C(=O)O)c1ccccc1 (centres unmarked) [Formula Ia-xxv, 2-((3-cyano-4,6-di(furan-2-yl)pyridin-2-yl)thio)-2-phenylacetic acid] | 4040 | 
22 | COc1ccc(-c2c(C#N)c(SC(C(=O)O)c3ccccc3)nc3c2CCCC3)cc1 (centres unmarked) [Formula Ia-xxvi, 2-((3-cyano-4-(4-methoxyphenyl)-5,6,7,8-tetrahydroquinolin-2-yl)thio)-2-phenylacetic acid] | 560 | 
23 | N#Cc1c(SC(C(N)=O)c2ccccc2)nc2c(c1-c1cccs1)CCCC2 (centres unmarked) [Formula Ib-i, 2-((3-cyano-4-(thiophen-2-yl)-5,6,7,8-tetrahydroquinolin-2-yl)thio)-2-phenylacetamide] | 712 | 
24 | COc1ccc(-c2cc(-c3cccs3)nc(SC(C(N)=O)c3ccccc3)c2C#N)cc1 (centres unmarked) [Formula Ib-ii, 2-((3-cyano-4-(4-methoxyphenyl)-6-(thiophen-2-yl)pyridin-2-yl)thio)-2-phenylacetamide] | > 33000 | 
25 | COc1ccc(-c2cc(-c3cccs3)nc(SC(C(=O)NO)c3ccccc3)c2C#N)cc1 (centres unmarked) [Formula Ib-iii, 2-((3-cyano-4-(4-methoxyphenyl)-6-(thiophen-2-yl)pyridin-2-yl)thio)-N-hydroxy-2-phenylacetamide] | 882 | 
26 | CO[C@H]1CCCC[C@@H](c2ccccc2)OC(=O)[C@@H](C)[C@@]2(O)O[C@H]([C@@H](C)[C@H](O)[C@H]2OC)[C@@H](C)/C=C/[C@H]1OC [Soraphen, reference compound] | 45.8 | 

From patent publication US10548313B2, “Acetyl-CoA carboxylase modulators” (Monsanto Technology LLC, priority 2013, dated 2020)
